Data from patent US7294637B2 (Sepracor, Inc., priority 2000, dated 2007).
pIC50: −log10 of the molar value. Where two headings read alike, the source gives them in different places.

Experiments:
[1] = molecular target: norepinephrine transporter (Homo sapiens, UniProt P23975); assay: NE uptake: displacement of norephinephrine ligands in vitro (methods of Galli et al.); assay type: binding; conditions: for IC50: NE Uptake, Uptake Profile (IC50, nM); for pIC50: read-out: NE Uptake, Uptake Profile (IC50)
serotonin transporter = serotonin transporter (Homo sapiens, UniProt P31645); assay: 5-HT uptake: displacement of serotonin ligands in vitro (methods of Gu et al.); assay type: binding; conditions: for pIC50: displacement of serotonin ligands in vitro, read-out: 5-HT Uptake, Uptake Profile (IC50); for IC50: 5-HT Uptake, Uptake Profile (IC50, nM)
dopamine transporter = dopamine transporter (Homo sapiens, UniProt Q01959); assay: DA uptake: displacement of dopamine ligands in vitro (methods of Gu et al.); conditions: for IC50: DA Uptake, Uptake Profile (IC50, nM)
[2] = displacement of dopamine ligands in vitro
[3] = read-out: DA Uptake, Uptake Profile (IC50), displacement of dopamine ligands in vitro

serotonin transporter, sequence (P31645 whole entry): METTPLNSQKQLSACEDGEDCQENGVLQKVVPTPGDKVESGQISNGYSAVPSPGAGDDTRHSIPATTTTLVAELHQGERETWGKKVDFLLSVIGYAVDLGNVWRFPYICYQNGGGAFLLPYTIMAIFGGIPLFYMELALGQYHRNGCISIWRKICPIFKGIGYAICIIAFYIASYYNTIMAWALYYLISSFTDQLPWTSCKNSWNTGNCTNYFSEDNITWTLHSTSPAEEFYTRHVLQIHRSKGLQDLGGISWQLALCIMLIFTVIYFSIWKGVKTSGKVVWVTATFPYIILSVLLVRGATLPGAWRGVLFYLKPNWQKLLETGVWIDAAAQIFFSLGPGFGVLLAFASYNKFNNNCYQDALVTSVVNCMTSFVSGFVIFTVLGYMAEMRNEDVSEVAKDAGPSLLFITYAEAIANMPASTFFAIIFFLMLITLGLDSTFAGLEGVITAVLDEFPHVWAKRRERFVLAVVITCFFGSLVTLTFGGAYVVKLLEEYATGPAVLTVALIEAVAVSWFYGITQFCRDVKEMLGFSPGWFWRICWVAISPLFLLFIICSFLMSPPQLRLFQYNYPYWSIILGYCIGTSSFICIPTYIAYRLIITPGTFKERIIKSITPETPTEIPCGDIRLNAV
norepinephrine transporter, sequence (P23975 whole entry): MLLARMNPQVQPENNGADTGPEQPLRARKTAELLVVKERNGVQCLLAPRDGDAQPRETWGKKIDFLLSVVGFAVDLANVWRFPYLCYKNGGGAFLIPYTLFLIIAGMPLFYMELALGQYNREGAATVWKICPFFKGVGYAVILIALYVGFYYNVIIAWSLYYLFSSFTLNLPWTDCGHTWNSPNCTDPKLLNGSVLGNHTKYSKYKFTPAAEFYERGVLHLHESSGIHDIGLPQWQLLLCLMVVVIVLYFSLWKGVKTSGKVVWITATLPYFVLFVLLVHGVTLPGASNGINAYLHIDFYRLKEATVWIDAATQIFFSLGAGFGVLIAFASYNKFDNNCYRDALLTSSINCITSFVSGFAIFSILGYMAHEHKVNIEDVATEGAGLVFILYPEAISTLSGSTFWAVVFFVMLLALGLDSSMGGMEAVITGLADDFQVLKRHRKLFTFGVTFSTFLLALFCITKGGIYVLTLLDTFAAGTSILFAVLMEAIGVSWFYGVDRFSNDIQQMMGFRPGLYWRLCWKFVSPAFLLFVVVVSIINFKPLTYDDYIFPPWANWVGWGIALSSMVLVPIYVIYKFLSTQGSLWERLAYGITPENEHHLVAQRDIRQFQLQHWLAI
dopamine transporter, sequence (Q01959 whole entry): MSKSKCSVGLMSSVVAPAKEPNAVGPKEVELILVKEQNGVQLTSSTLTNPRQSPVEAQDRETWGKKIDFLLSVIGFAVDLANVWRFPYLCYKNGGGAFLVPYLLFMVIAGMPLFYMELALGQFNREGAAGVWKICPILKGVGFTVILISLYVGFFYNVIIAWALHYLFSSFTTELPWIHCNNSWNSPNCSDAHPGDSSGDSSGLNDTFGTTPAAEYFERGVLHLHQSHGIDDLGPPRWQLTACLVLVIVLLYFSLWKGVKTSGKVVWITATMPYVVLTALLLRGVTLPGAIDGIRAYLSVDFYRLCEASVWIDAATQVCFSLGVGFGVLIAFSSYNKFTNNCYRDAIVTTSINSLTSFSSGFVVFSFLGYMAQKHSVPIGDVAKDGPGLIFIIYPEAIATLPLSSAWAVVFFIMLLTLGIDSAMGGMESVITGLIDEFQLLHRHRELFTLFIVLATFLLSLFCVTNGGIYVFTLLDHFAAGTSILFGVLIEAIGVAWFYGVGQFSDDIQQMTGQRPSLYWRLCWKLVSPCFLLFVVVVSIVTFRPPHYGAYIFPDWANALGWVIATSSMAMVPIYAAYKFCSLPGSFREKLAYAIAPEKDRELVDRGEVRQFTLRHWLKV

| SMILES | IC50 [1] | pIC50 (serotonin transporter) | IC50 (dopamine transporter; [2]) | IC50 (serotonin transporter) | pIC50 [1] | pIC50 (dopamine transporter) | pIC50 (dopamine transporter; [3]) |
| --- | --- | --- | --- | --- | --- | --- | --- |
| OC(CN1CCCC(COc2ccccc2)C1)C1(c2ccc(Cl)cc2)CCC1 (stereo not drawn) [compound 21, 1-[1-(4-Chloro-phenyl)cyclobutyl]-2-(3-phenoxymethylpiperidin-1-yl)ethanol] | < 100 nM | > 6.00 | < 100 nM | – | – | – | – |
| O=C(CN1CCCC(COc2ccc(C(F)(F)F)cc2)C1)C1(c2ccc(Cl)cc2)CCC1 (stereo not drawn) [compound 23, 1-[1-(4-Chlorophenyl)cyclobutyl]-2-[3-(4-trifluoromethyl-phenoxymethyl)piperidin-1-yl]ethanone] | < 1000 nM | < 6.00 | < 100 nM | – | – | – | – |
| OC(CN1CCCC(COc2ccc(C(F)(F)F)cc2)C1)C1(c2ccc(Cl)cc2)CCC1 (stereo not drawn) [compound 24, 1-[1-(4-Chlorophenyl)cyclobutyl]-2-[3-(4-trifluoromethylphenoxymethyl)piperidin-1-yl]ethanol] | < 10 nM | > 6.00 | < 10 nM | – | – | – | – |
| O=C(CN1CCCC(COc2ccccc2)C1)c1ccc(Cl)cc1 (stereo not drawn) [compound 32, 1-(4-Chloro-phenyl)-2-(3-phenoxymethyl-piperidin-1-yl)-ethanone] | < 1000 nM | – | > 1000 nM | > 1000 nM | – | – | – |
| OC(CN1CCCC(COc2ccccc2)C1)c1ccc(Cl)cc1 (stereo not drawn) [compound 33, 1-(4-Chloro-phenyl)-2-(3-phenoxymethyl-piperidin-1-yl)-ethanol] | < 1000 nM | > 6.00 | < 100 nM | – | – | – | – |
| c1ccc(OCC2CCCN(CC3(c4ccccc4)CCC3)C2)cc1 (stereo not drawn) [compound 34, 3-Phenoxymethyl-1-(1-phenyl-cyclobutylmethyl)-piperidine] | < 1000 nM | > 6.00 | < 1000 nM | – | – | – | – |
| CN(C[C@@H]1CCCN(CC2(c3ccc(Cl)cc3)CCC2)C1)c1ccccc1 [compound 35, {1-[1-(4-Chloro-phenyl)-cyclobutylmethyl]-piperidin-3-R-ylmethyl}-methyl-phenyl-amine] | – | < 6.00 | – | – | < 6.00 | < 6.00 | – |
| FC(F)(F)c1ccc(OCCC2CCCN(CC3(c4ccc(Cl)cc4)CCC3)C2)cc1 (stereo not drawn) [compound 39, 1-[1-(4-Chloro-phenyl)-cyclobutylmethyl]-3-[2-(4-trifluoromethyl-phenoxy)-ethyl]-piperidine] | < 100 nM | < 6.00 | < 10 nM | – | – | – | – |
| CC(C)(CN1CCCC(COc2ccc(C(F)(F)F)cc2)C1)c1ccc(Cl)cc1 (stereo not drawn) [compound 42, 1-[2-(chloro-phenyl)-2-methyl-propyl]-3-(4-trifluoromethyl-phenoxymethyl)-piperidine] | – | < 6.00 | – | – | > 6.00 | – | > 7.00 |
| COc1ccc(OCC2CCCN(CC3(c4ccccc4)CCC3)C2)cc1 (stereo not drawn) [compound 55, 3-(4-Methoxy-phenoxymethyl)-1-(1-phenyl-cyclobutylmethyl)piperidine] | > 1000 nM | < 6.00 | < 1000 nM | – | – | – | – |
| FC(F)(F)c1ccc(OC[C@@H]2CCCN(CC3(c4ccc(Cl)cc4)CCC3)C2)cc1 [compound 76] | < 1000 nM | – | < 1000 nM | > 1000 nM | – | – | – |
| FC(F)(F)c1ccc(SCC2CCCN(CC3(c4ccc(Cl)cc4)CCC3)C2)cc1 (stereo not drawn) [compound 78] | < 1000 nM | < 6.00 | < 1000 nM | – | – | – | – |
| CC(O)(CN1CCCC(COc2ccccc2)C1)c1ccc(Cl)cc1 (stereo not drawn) [compound 79, 2-(4-Chloro-phenyl)-1-(3-phenoxymethyl-piperidin-1-yl)-propan-2-ol] | < 1000 nM | > 7.00 | < 1000 nM | – | – | – | – |
| CC(C)(CN1CCCC(CO)C1)c1ccc(Cl)cc1 (stereo not drawn) [compound 80] | – | < 6.00 | > 1000 nM | – | < 6.00 | – | – |
| OC1CCCN(CC2(c3ccc(Cl)cc3)CCC2)C1 (stereo not drawn) [compound 89, 1-[1-(4-Chlorophenyl)cyclobutylmethyl]piperidin-3-ol] | < 1000 nM | < 6.00 | < 1000 nM | – | – | – | – |
| FC(F)(F)c1ccc(CCC2CCCN(CC3(c4ccccc4)CCC3)C2)cc1 (stereo not drawn) [compound 93, 1-(1-phenyl-cyclobutylmethyl]-3-[2-(4-trifluoromethyl-phenyl)-ethyl]-piperidine] | – | > 6.00 | – | – | < 6.00 | < 6.00 | – |
| FC(F)(F)c1ccc(CCC2CCCN(CC3(c4ccc(Cl)cc4)CCC3)C2)cc1 (stereo not drawn) [compound 95, 1-[1-(4-Chloro-phenyl)-cyclobutylmethyl]-3-[2-(4-trifluoromethyl-phenyl)-ethyl]-piperidine] | – | > 6.00 | < 1000 nM | – | < 6.00 | – | – |
| FC(F)(F)c1ccc(OCC2CN(CC3(c4ccc(Cl)cc4)CCC3)C2)cc1 [compound 105, methanesulfonic acid 1-[1-(4-chloro-phenyl)-cyclobutylmethyl]-3-(4-trifluoromethyl-phenoxymethyl)-azetidine] | < 100 nM | > 6.00 | < 10 nM | – | – | – | – |
| FC(F)(F)c1ccc(COC2CCCN(CC3(c4ccc(Cl)cc4)CCC3)C2)cc1 (stereo not drawn) [compound 107, 1-[1-(4-Chloro-phenyl)-cyclobutylmethyl]-3-(4-trifluoromethyl-benzyloxy)-piperidine] | < 1000 nM | < 6.00 | < 1000 nM | – | – | – | – |
| CC(C)(CN1CCC[C@@H](COc2ccc(C(F)(F)F)cc2)C1)c1ccc(Cl)cc1 [compound 122] | – | < 6.00 | – | – | < 6.00 | – | > 6.00 |
| Fc1ccc(OC[C@@H]2CCCN(CC3(c4ccc(Cl)cc4)CCC3)C2)cc1 [compound 133, (R)-1-[1-(4-Chloro-phenyl)-cyclobutylmethyl]-3-(4-fluoro-phenoxymethyl)-piperidine] | < 1000 nM | – | < 1000 nM | > 1000 nM | – | – | – |
| OC(CN1CCCC(COc2ccc(C(F)(F)F)cc2)C1)c1ccc(Cl)cc1 (stereo not drawn) [compound 136, 1-(4-Chloro-phenyl)-2-[3-(4-trifluoromethyl-phenoxymethyl)-piperidin-1-yl]-ethanol] | < 1000 nM | > 7.00 | < 1000 nM | – | – | – | – |
| OC(CN1CCCC(CCc2ccccc2)C1)c1ccc(Cl)cc1 (stereo not drawn) [compound 140, 1-(4-Chloro-phenyl)-2-(3-phenethyl-piperidin-1-yl)-ethanol] | < 100 nM | > 7.00 | < 100 nM | – | – | – | – |
| O=C(CN1CCC[C@@H](CCc2ccccc2)C1)c1ccc(Cl)cc1 [compound 145, (R)-1-(4-Chloro-phenyl)-2-(3-phenethyl-piperidin-1-yl)-ethanone] | < 1000 nM | – | < 1000 nM | < 1000 nM | – | – | – |
| Clc1ccc(C2(CN3CCCC(CCc4ccccc4)C3)CCC2)cc1 (stereo not drawn) [compound 147, 1-[1-(4-Chloro-phenyl)-cyclobutylmethyl]-3-phenethyl-piperidine] | < 100 nM | < 6.00 | < 1000 nM | – | – | – | – |
| O=C(CN1CCCC(CCc2ccc(C(F)(F)F)cc2)C1)c1ccc(Cl)cc1 (stereo not drawn) [compound 150, 1-(4-Chloro-phenyl)-2-{3-[2-(4-trifluoromethyl-phenyl)-ethyl]-piperidin-1-yl}-ethanone] | – | < 6.00 | – | – | < 6.00 | < 6.00 | – |
| O=C(CN1CCCC(CCc2ccc(C(F)(F)F)cc2)C1)C1(c2ccc(Cl)cc2)CCC1 (stereo not drawn) [compound 155, 1-[1-(4-Chloro-phenyl)-cyclobutyl]-2-{3-[2-(4-trifluoromethyl-phenyl)-ethyl]-piperidin-1-yl}-ethanone] | > 1000 nM | < 6.00 | < 100 nM | – | – | – | – |
| FC(F)(F)c1ccc(OC2CCCN(CC3(c4ccc(Cl)cc4)CCC3)C2)cc1 (stereo not drawn) [compound 158] | > 1000 nM | < 6.00 | < 1000 nM | – | – | – | – |
